Data set [1] can be described thus: Body weight and blood glucose in non-diabetic mice. The data set is classed as in vivo, C57BL/6 mice. The following applies: linagliptin vs. control, 0.083 g/kg chow (3 mg/kg/d oral). An excerpt: (§1) 6-week-old male C57BL/6 mice were purchased and were housed in a polycarbonate cage with a wooden chip mat on the floor; water was available ad libitum. C57BL/6 mice were divided into 2 groups: control (n=14) and linagliptin-treated (n=14). At age 7 weeks, control mice were fed normal chow (22.6% protein, 53.8% carbohydrate, 5.6% fat, 6.6% mineral and vitamin mixture, and 3.3% fiber; total: 356 kcal/100 g) with vehicle; linagliptin-treated mice were fed normal chow with linagliptin (0.083 g/kg chow, which results in mean plasma levels of 50-150 nM, corresponding to an oral dose of 3 mg/kg/d). The animal room was kept on a 12-h light/dark cycle at a constant temperature (22±1° C.) with relative humidity of 55±5% throughout the experimental period. Endothelial denudation injuries were induced in the femoral artery at age 8 weeks, followed by evaluation of neointimal formation at age 12 weeks.

Data set [2] in a line: Plasma levels of linagliptin in mice fed linagliptin in chow. The following applies: 0.083 g/kg chow, corresponding to oral dose of 3 mg/kg/d. The data set is classed as in vivo, C57BL/6 mice.
Excerpt: as §1

Data set [3] concerns femoral arteries after vascular injury. Kind of data set: Guidewire-induced femoral artery endothelial denudation injury, neointima formation (tissue analysis, elastic staining). The data set is classed as in vivo, C57BL/6 mice. Particulars: non-diabetic mice, femoral artery guide wire injury, 4 weeks after injury, 0.083 g/kg chow (3 mg/kg/d oral).
Excerpt: as §1, with “weeks. Mouse femoral artery endothelial denudation injury was induced in C57BL/6 mice in the control and linagliptin groups at age 8 weeks, as previously described. […] Serial sections of 1.5 mm proximal region from the incision site for the wire insertion were evaluated by staining with Elastica van Gieson stain kit (4033-4037, Muto Pure Chemicals Co., Tokyo, Japan) to visualize the internal elastic lamina.” for “weeks.”

For data set [4], the system named is active GLP-1. Put plainly: Serum active GLP-1 concentration (ELISA) in non-diabetic mice. The data set is classed as in vivo, C57BL/6 mice. The following applies: linagliptin vs. control, 0.083 g/kg chow (3 mg/kg/d oral).
Excerpt: as §1

Data set [5] deals with rat aortic SMC. Kind of data set: FBS-induced vascular smooth muscle cell proliferation, BrdU incorporation assay. The data set is classed as cell-based. The following applies: in vitro, 10% FBS for 24 h, 12-h pre-treatment of linagliptin. Here is the method:
Rat aortic vascular SMC (VSMC) and mouse aortic VSMC were serum-deprived in Dulbecco's modified Eagle's medium containing 0.1% fetal bovine serum (FBS) for at least 24 h and subjected to mitogenic stimulation with 10% FBS for 24 h with or without 12-h pre-treatment of linagliptin at the indicated concentration BrdU Assay. To evaluate cell proliferation of rat aortic SMC, the bromodeoxyuridine (BrdU) incorporation assay was performed using the Cell Proliferation enzyme-linked immunosorbent assay (ELISA) kit (1647229, Roche Applied Science, Mannheim, Germany) as previously described.

`CC#CCn1c(N2CCC[C@@H](N)C2)nc2c1c(=O)n(Cc1nc(C)c3ccccc3n1)c(=O)n2C` [Linagliptin, 1-[(4-methyl-quinazolin-2-yl)methyl]-3-methyl-7-(2-butyn-1-yl)-8-(3-(R)-amino-piperidin-1-yl)-xanthine]: in data set [1], the blood glucose entry is listed as “does not change” and the body weight entry was “does not change”. This molecule also came in with a mean plasma levels in data set [2] of 50 to 150 nM. The “neointima formation after vascular injury (intima area, media area, intima/media ratio)” value in data set [3] was “attenuates”. For the same molecule, the “serum active GLP-1 concentration (ELISA)” value in data set [4] was “increases”. Moreover, the “FBS-induced vascular smooth muscle (SMC) proliferation (BrdU assay)” value in data set [5] is recorded as “reduces”.

The record behind these values is patent US20140371243A1, “MEDICAL USE OF A DPP-4 INHIBITOR” (Boehringer Ingelheim International GmbH, priority 2013, published 2014).
